Assay results: PubChem BioAssay (NCI)
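Grown in 96-well plates, cells were treated for 48 hours with each compound at five concentrations. Insufficient inhibition: endpoint recorded as highest concentration tested. The concentration for 50% growth inhibition is given as GI50. TGI marks complete inhibition of growth.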

Assays:
Experiment in all cases: NCI tumour cell line growth inhibition, 48 h
A498 renal = tested on: A498 renal
A549 NSCLC = tested on: A549 NSCLC
CAKI-1 renal = tested on: CAKI-1 renal
CCRF-CEM leukemia = tested on: CCRF-CEM leukemia
COLO 205 colon = tested on: COLO 205 colon
DLD-1 colon = tested on: DLD-1 colon
DMS 114 small cell lung = tested on: DMS 114 small cell lung
EKVX NSCLC = tested on: EKVX NSCLC
HCC-2998 colon = tested on: HCC-2998 colon
HCT-116 colon = tested on: HCT-116 colon
HCT-15 colon = tested on: HCT-15 colon
HL-60(TB) leukemia = tested on: HL-60(TB) leukemia
HOP-18 NSCLC = tested on: HOP-18 NSCLC
HOP-62 NSCLC = tested on: HOP-62 NSCLC
HOP-92 NSCLC = tested on: HOP-92 NSCLC
HT29 colon = tested on: HT29 colon
IGROV1 ovarian = tested on: IGROV1 ovarian
K-562 leukemia = tested on: K-562 leukemia
KM12 colon = tested on: KM12 colon
KM20L2 colon = tested on: KM20L2 colon
LOX IMVI melanoma = tested on: LOX IMVI melanoma
M19-MEL melanoma = tested on: M19-MEL melanoma
MALME-3M melanoma = tested on: MALME-3M melanoma
MCF7 breast = tested on: MCF7 breast
MOLT-4 leukemia = tested on: MOLT-4 leukemia
NCI-H226 lung = tested on: NCI-H226 lung
NCI-H23 lung = tested on: NCI-H23 lung
NCI-H460 lung = tested on: NCI-H460 lung
NCI-H522 lung = tested on: NCI-H522 lung
NCI/ADR-RES ovarian = tested on: NCI/ADR-RES ovarian
OVCAR-3 ovarian = tested on: OVCAR-3 ovarian
OVCAR-4 ovarian = tested on: OVCAR-4 ovarian
OVCAR-5 ovarian = tested on: OVCAR-5 ovarian
OVCAR-8 ovarian = tested on: OVCAR-8 ovarian
P388 leukemia = tested on: P388 leukemia
P388/ADR leukemia = tested on: P388/ADR leukemia
RPMI-8226 leukemia = tested on: RPMI-8226 leukemia
RXF 393 renal = tested on: RXF 393 renal
SF-268 CNS = tested on: SF-268 CNS
SF-295 CNS = tested on: SF-295 CNS
SF-539 CNS = tested on: SF-539 CNS
SK-MEL-28 melanoma = tested on: SK-MEL-28 melanoma
SK-MEL-5 melanoma = tested on: SK-MEL-5 melanoma
SK-OV-3 ovarian = tested on: SK-OV-3 ovarian
SN12C renal = tested on: SN12C renal
SN12K1 renal = tested on: SN12K1 renal
SNB-19 CNS = tested on: SNB-19 CNS
SNB-75 CNS = tested on: SNB-75 CNS
SNB-78 CNS = tested on: SNB-78 CNS
SW-620 colon = tested on: SW-620 colon
U251 CNS = tested on: U251 CNS
UACC-257 melanoma = tested on: UACC-257 melanoma
UACC-62 melanoma = tested on: UACC-62 melanoma
UO-31 renal = tested on: UO-31 renal
XF 498 CNS = tested on: XF 498 CNS

Cc1cc([NH-])c([NH-])cc1C.[Cl][Pt+2][Cl]
GI50 (A498 renal): 33.4 µM
TGI (A498 renal): > 87.6 µM
GI50 (A549 NSCLC): 49 µM
TGI (A549 NSCLC): > 100 µM
GI50 (CAKI-1 renal): 12 µM
TGI (CAKI-1 renal): 27.6 µM
GI50 (CCRF-CEM leukemia): 1.95 µM
TGI (CCRF-CEM leukemia): 61.5 µM
GI50 (COLO 205 colon): 14.8 µM
TGI (COLO 205 colon): 34.9 µM
GI50 (DLD-1 colon): 8 µM
TGI (DLD-1 colon): 28.9 µM
GI50 (DMS 114 small cell lung): 8.09 µM
TGI (DMS 114 small cell lung): 32.3 µM
GI50 (EKVX NSCLC): 19.7 µM
TGI (EKVX NSCLC): 46.7 µM
GI50 (HCC-2998 colon): > 44.8 µM
TGI (HCC-2998 colon): 99.1 µM
GI50 (HCT-116 colon): 14.2 µM
TGI (HCT-116 colon): 32.9 µM
GI50 (HCT-15 colon): 10.9 µM
TGI (HCT-15 colon): 32.3 µM
GI50 (HL-60(TB) leukemia): 17 µM
TGI (HL-60(TB) leukemia): 75.4 µM
GI50 (HOP-18 NSCLC): > 82 µM
TGI (HOP-18 NSCLC): > 100 µM
GI50 (HOP-62 NSCLC): > 42.8 µM
TGI (HOP-62 NSCLC): > 77 µM
GI50 (HOP-92 NSCLC): 16.2 µM
TGI (HOP-92 NSCLC): 40.7 µM
GI50 (HT29 colon): 16.6 µM
TGI (HT29 colon): 40 µM
GI50 (IGROV1 ovarian): 15.2 µM
TGI (IGROV1 ovarian): 45.4 µM
TGI (K-562 leukemia): > 41.5 µM
GI50 (KM12 colon): 24.5 µM
TGI (KM12 colon): > 100 µM
GI50 (KM20L2 colon): 20.2 µM
TGI (KM20L2 colon): > 81.9 µM
GI50 (LOX IMVI melanoma): 7.9 µM
TGI (LOX IMVI melanoma): 17.6 µM
GI50 (M19-MEL melanoma): 8.79 µM
TGI (M19-MEL melanoma): 31.2 µM
GI50 (MALME-3M melanoma): 18 µM
TGI (MALME-3M melanoma): 36.6 µM
GI50 (MCF7 breast): 7.37 µM
TGI (MCF7 breast): 25.2 µM
GI50 (MOLT-4 leukemia): 5.07 µM
TGI (MOLT-4 leukemia): 41.6 µM
GI50 (NCI-H226 lung): 13.5 µM
TGI (NCI-H226 lung): 64 µM
GI50 (NCI-H23 lung): 14.2 µM
TGI (NCI-H23 lung): 37 µM
GI50 (NCI-H460 lung): 4.97 µM
TGI (NCI-H460 lung): > 43.8 µM
GI50 (NCI-H522 lung): 7.39 µM
TGI (NCI-H522 lung): 24.5 µM
GI50 (NCI/ADR-RES ovarian): 16.3 µM
TGI (NCI/ADR-RES ovarian): 42.7 µM
GI50 (OVCAR-3 ovarian): 17.9 µM
TGI (OVCAR-3 ovarian): 33.6 µM
GI50 (OVCAR-4 ovarian): 16.9 µM
TGI (OVCAR-4 ovarian): 31.7 µM
GI50 (OVCAR-5 ovarian): > 59.8 µM
TGI (OVCAR-5 ovarian): > 83.5 µM
GI50 (OVCAR-8 ovarian): 16.8 µM
TGI (OVCAR-8 ovarian): > 55.5 µM
GI50 (P388 leukemia): 2.42 µM
TGI (P388 leukemia): 10.2 µM
GI50 (P388/ADR leukemia): 2.36 µM
TGI (P388/ADR leukemia): 6.97 µM
GI50 (RPMI-8226 leukemia): 9.49 µM
TGI (RPMI-8226 leukemia): 60.2 µM
GI50 (RXF 393 renal): 16.3 µM
TGI (RXF 393 renal): 31.1 µM
GI50 (SF-268 CNS): 6.27 µM
TGI (SF-268 CNS): 34.6 µM
GI50 (SF-295 CNS): 3.36 µM
TGI (SF-295 CNS): 16.1 µM
GI50 (SF-539 CNS): 8.5 µM
TGI (SF-539 CNS): > 31.6 µM
GI50 (SK-MEL-28 melanoma): 16.7 µM
TGI (SK-MEL-28 melanoma): 39.5 µM
GI50 (SK-MEL-5 melanoma): 9.48 µM
TGI (SK-MEL-5 melanoma): 25.3 µM
GI50 (SK-OV-3 ovarian): > 96.8 µM
TGI (SK-OV-3 ovarian): > 100 µM
GI50 (SN12C renal): 8.13 µM
TGI (SN12C renal): 24.6 µM
GI50 (SN12K1 renal): 13.5 µM
TGI (SN12K1 renal): 32 µM
GI50 (SNB-19 CNS): 10.5 µM
TGI (SNB-19 CNS): > 100 µM
GI50 (SNB-75 CNS): 39.2 µM
TGI (SNB-75 CNS): > 100 µM
GI50 (SNB-78 CNS): 26.5 µM
TGI (SNB-78 CNS): > 96 µM
GI50 (SW-620 colon): 5.06 µM
TGI (SW-620 colon): 27 µM
GI50 (U251 CNS): 5.24 µM
TGI (U251 CNS): 17 µM
GI50 (UACC-257 melanoma): 22.4 µM
TGI (UACC-257 melanoma): > 67.2 µM
GI50 (UACC-62 melanoma): 8.88 µM
TGI (UACC-62 melanoma): 27.3 µM
GI50 (UO-31 renal): > 77.4 µM
TGI (UO-31 renal): > 100 µM
GI50 (XF 498 CNS): 19.7 µM
TGI (XF 498 CNS): 46.4 µM
